Compound `O=c1[nH]c(-c2ncccn2)no1` yielded a melting point of 221 to 223 °C.
For the compound `Cc1nc(C(C)C)sc1C(=O)O`, the melting point was 169 to 171 °C.
The result for `Clc1nc(C2CC2)nc2scc(-c3ccccc3)c12` reads 77 to 79 °C.
Regarding `Oc1ccc(-c2nc3cc(Cl)ccc3s2)cc1`, the melting point was 263 to 265 °C.
The result for `O=CC1=C(N2CCOCC2)C(=Cc2ccccc2)CC1` reads 141 to 143 °C; that for `O=C(O)CCOc1ccc(Br)cc1F`, 91 to 93 °C.
`Cc1nn(-c2ccc(Cl)cc2)cc1C=O` had a melting point of 121 to 123 °C.
The result for `O=C1NC(=O)C2(Cc3ccccc3C2)N1` reads 264 to 266 °C; that for `Cc1cc2ncn(Cc3ccc(Cl)cc3)c2cc1C`, 143 to 145 °C; that for `O=C1COc2ccc(F)cc21`, 104 to 106 °C.
For `Nc1nnc(-c2ccc(F)cc2)[nH]1`, the melting point was in the range of 223 to 227 °C.
`CN(N)C(N)=O` returned a melting point of 108 to 110 °C.
With `COc1cc(F)c(S(=O)(=O)Cl)c(F)c1` the figure was 53 to 55 °C; with `Nc1c(C(=O)O)cc(Br)c2c1C(=O)c1ccccc1C2=O`, 313 to 315 °C; with `Cc1nc(C(C)(C)O)n[nH]1`, 185 to 187 °C.
With `Cc1cc(NN)ncn1` the figure was 99 to 101 °C; with `O=C(O)C1CCCN(C(=O)c2ccc(Cl)cc2)C1` (configuration not stated), 145 to 152 °C.
Take `Cc1c(N)cccc1CN1CCSCC1`: the melting point fell in the range of 80 to 82 °C.
In turn, `Nc1ccc(C(=O)NCc2ccccc2)cc1` gave a melting point of 113 to 115 °C.
Regarding `CSc1ccncc1N`, the melting point lay in the range of 78 to 80 °C.
The result for `Cc1c(C2CC2)nc2ccc(Br)cc2c1C(=O)O` reads 218 to 220 °C.
With `Cc1nn(C)c(C)c1CC(N)=O`, the melting point was 175 to 177 °C.
The result for `CN(C)C(=O)COc1cccc(N)c1` reads 100 to 102 °C; that for `NC(CC(=O)O)c1cccs1` (configuration not stated), 219 to 221 °C; that for `COc1cccc(-n2cnnc2S)c1`, 167 to 169 °C.
With `Cc1cc(C)n2ncc(C(=O)O)c2n1` the figure was 176 to 178 °C; with `Nc1ccc2ccoc2c1`, 51 to 53 °C.
With `O=C(Cc1ccc(Br)cc1)Nc1ccc(C(=O)O)cc1` the figure was 282 to 284 °C.
`COC(=O)c1ccc(CN2CCC(CO)CC2)cc1` returned a melting point of 54 to 56 °C.
`Cc1ccnc(-n2cc(S(N)(=O)=O)cn2)c1` displayed a melting point of 156 to 158 °C.
With `CN1CCN(CCc2ccc(N)cc2)CC1` the figure was 64 to 66 °C; with `O=C(O)COc1ccc(Cl)c2ccccc12`, 162 to 164 °C; with `O=C(O)c1cccnc1Nc1ccccc1F`, 215 to 217 °C.
With `O=C1CCCc2cc(O)ccc2N1` the figure was 219 to 221 °C.
In the case of `O=C(O)C1(c2ccc(Br)cc2)CC1`, the melting point was in the range of 155 to 157 °C.
Compound `Cc1cc(C)c(O)c(C(=O)O)c1` returned a melting point of 172 to 174 °C.
The result for `CCOc1ccc(OCC(=O)O)cc1` reads 125 to 130 °C; that for `COc1ccc([N+](=O)[O-])cc1C#N`, 69 to 71 °C.
With `Cc1noc(N)c1S(N)(=O)=O`, the melting point lay in the range of 131 to 133 °C.
The result for `NC(=O)c1cn[nH]c1` reads 223 to 225 °C; that for `O=C(O)C1(Br)CCC1`, 40 to 42 °C.
With `COCCOc1ccc(C(=O)O)cc1OC` the figure was 149 to 151 °C; with `NNC(=O)Cc1csc(N2CCOCC2)n1`, 168 to 170 °C; with `COc1ccc2c(=O)c(-c3ccccc3)c(C)oc2c1`, 136 to 138 °C.
With `OCc1ccc2cn[nH]c2c1` the figure was 158 to 160 °C; with `NS(=O)(=O)c1cccc(C(=O)O)c1`, 238 to 240 °C.
In turn, `CC(=O)Nc1ccc2c(CCl)cc(=O)oc2c1` displayed a melting point of 190 to 195 °C.
For the compound `COc1ccccc1NC1=NCC(C)S1` (configuration not stated), the melting point is 92 to 97 °C.
`Cc1cc(C(=O)CCl)c(C)n1-c1ccccc1F` registered a melting point of 86 to 90 °C.
With `COc1ccccc1CNc1ccc2[nH]c(=O)[nH]c2c1` the figure was 216 to 218 °C.
With `CC(N)c1ccc(NC(=O)NC2CC2)cc1` (configuration not stated) the figure was 142 to 144 °C; with `C=CCNc1ccc(C(F)(F)F)cc1C#N`, 54 to 56 °C; with `Nc1cccnc1C(=O)O`, 218 to 220 °C.
With `N#Cc1ccccc1-c1ccc(CN2CCOCC2)cc1` the figure was 71 to 73 °C; with `Fc1ccc(-c2cnc(S)o2)cc1`, 252 to 254 °C.
The compound `O=C(NC(Cc1cccnc1)C(=O)O)c1ccccc1` (configuration not stated) registered a melting point of 176 to 178 °C.
The result for `Cc1ccccc1C(=O)NC(CC(C)C)C(=O)O` (configuration not stated) reads 111 to 113 °C.
`CS(=O)(=O)c1c(F)cc(N)cc1F` displayed a melting point of 169 to 171 °C.
On to `Cc1cc(NC(=O)C(C)Cl)ccc1Br` (configuration not stated), for which the melting point fell in the range of 149 to 151 °C.
The result for `Nc1ccc(CC(=O)N2CCCC2)cc1` reads 107 to 109 °C; that for `CS(=O)(=O)c1cc([N+](=O)[O-])c(O)c([N+](=O)[O-])c1`, 221 to 223 °C; that for `Nc1ccc(S(N)(=O)=O)cc1Cl`, 156 to 158 °C.
As for `Nc1nc(-c2cc(Cl)ccc2Cl)cs1`, the melting point lay in the range of 161 to 165 °C.
Compound `O=C(c1cccc([N+](=O)[O-])c1)N1CCNCC1` came in with a melting point of 145 to 147 °C.
The result for `Cc1cc(C)c2c(c1)c(C)cc1nnc(S)n12` reads 262 to 264 °C; that for `Nc1ccc(OCC(F)(F)F)c(C(F)(F)F)c1`, 48 to 50 °C.
In turn, `Nc1nc2cc(F)c(F)cc2[nH]1` registered a melting point of 144 to 146 °C.
The result for `Clc1ccc(Br)c2ccccc12` reads 62 to 64 °C.
With `FC(F)(F)c1ccc2c(c1)NCCO2` the figure was 94 to 96 °C.
`NC(=O)CNCc1ccc(OCc2ccccc2)cc1`: the melting point was in the range of 140 to 142 °C.
Consider `O=C(CC(F)(F)F)c1cc(F)ccc1F`, for which the melting point fell in the range of 45 to 47 °C.
With `O=C1NCCC1c1ccccc1` (configuration not stated) the figure was 82 to 84 °C; with `Sc1nnc(Nc2cccc(Cl)c2)s1`, 210 to 212 °C; with `CCOC(=O)Cn1ncc2ccc(N)cc21`, 114 to 116 °C.
The compound `O=C(O)c1ccc(O)cc1F` displayed a melting point of 202 to 204 °C.
The result for `N#Cc1ccc(C(O)C(=O)O)cc1` (configuration not stated) reads 89 to 91 °C; that for `CCN1CCN(CC(=O)O)C(=O)C1=O`, 200 to 202 °C.
With `O=C(O)Cn1cc2ccccc2n1` the figure was 248 to 250 °C; with `Nc1ccccc1C(=O)Nc1ccc2c(c1)OCCO2`, 117 to 119 °C.
The result for `CCOc1c(N)cc(Cl)cc1Br` reads 45 to 47 °C; that for `COc1ccc(NC(=O)C=CC(=O)O)cc1OC`, 119 to 121 °C.
The compound `CCOC(=O)c1c(NC(=O)C(C)Cl)sc2c1CCC(C)C2` (configuration not stated) gave a melting point of 90 to 93 °C.
With `COc1ccc(-c2csc(CC#N)n2)cc1OC` the figure was 101 to 103 °C.
With `CC1(Cc2ccc3c(c2)OCO3)NC(=O)NC1=O` (configuration not stated) the figure was 183 to 185 °C; with `c1cc2c(s1)C1(CCNCC1)OCC2`, 95 to 97 °C; with `O=C1CS/C(=C/C(=O)c2cccc(Cl)c2)N1`, 207 to 209 °C.
The result for `Cc1nn2c(nc(Cl)c3ccccc32)c1Cl` reads 176 to 178 °C; that for `CSc1ccc([N+](=O)[O-])c(C(=O)O)c1`, 176 to 178 °C; that for `Nc1nccnc1CO`, 115 to 117 °C.
In turn, `O=c1[nH]c2ccc(NCc3ccccc3Cl)cc2[nH]1` yielded a melting point of 227 to 229 °C.
The result for `NS(=O)(=O)c1c(Cl)cccc1[N+](=O)[O-]` reads 143 to 145 °C; that for `NC(=O)OCC(F)(F)F`, 42 to 44 °C.
With `O=C(O)CCCN1C(=O)CCc2ccccc21` the figure was 179 to 181 °C.
For the compound `COc1ccc2c(c1)CC(=O)NCC2`, the melting point was in the range of 151 to 153 °C.
The result for `CC(C)c1ccsc1C(=O)O` reads 97 to 99 °C; that for `CC(=O)c1ccc(-c2ccc(Cl)cc2)s1`, 120 to 122 °C; that for `Nc1ccc(N2CCOCC2)c(S(=O)(=O)Nc2cc(Cl)ccc2Cl)c1`, 66 to 68 °C.
The result for `Clc1ccc2nc(-c3ccccn3)[nH]c2c1` reads 133 to 135 °C.
The result for `Cc1cccc2c(=O)n(CCC(=O)O)cnc12` reads 199 to 201 °C; that for `CCOC(=O)CN1C(=O)CNC1=O`, 109 to 111 °C; that for `O=C(O)c1cccc(CSc2cc(Cl)cc(Cl)c2)c1`, 147 to 149 °C.
Regarding `COc1cc(C)cc2c(C)c(C(=O)O)oc12`, the melting point was in the range of 239 to 241 °C.
The result for `CCNC(=O)NC1CCC(O)CC1` (configuration not stated) reads 36 to 39 °C; that for `CNC(=O)c1c(C)cccc1N`, 109 to 111 °C.
The result for `NC(=O)c1c[nH]nn1` reads 256 to 258 °C; that for `COc1cccc(C(=O)NN)c1OC`, 77 to 79 °C.
With `CC1=CSC(=C(C#N)N=O)N1` the figure was 180 to 182 °C.
`O=C(Cc1ccc(Br)cc1)NC(C(=O)O)c1ccccc1` (configuration not stated) gave a melting point of 177 to 179 °C.
With `Cc1cc(C(=O)O)nn1-c1ccc(Br)cc1` the figure was 211 to 213 °C.
With `Cc1nn(C)c2c1N(C(=O)OC(C)(C)C)CC(C)N2` (configuration not stated) the figure was 129 to 131 °C; with `Cc1cc(=O)[nH]c(-c2ccnc(Cl)c2)n1`, 269 to 271 °C.
Take `O=S1(=O)CCNc2ccccc21`: the melting point lay in the range of 139 to 141 °C.
The result for `COc1ccc(-c2nnc(Cl)c3ccccc23)cc1` reads 148 to 150 °C; that for `N#Cc1c2c(n(-c3ccccc3)c1NC(=O)CCl)CCCC2`, 156 to 158 °C; that for `CC1(C)CC(=O)OC1=O`, 29 to 31 °C.
The result for `CCNc1nc2cc(Cl)ccc2s1` reads 118 to 120 °C; that for `Cc1nc(Cl)cc(-n2ccnc2)n1`, 114 to 116 °C.
The compound `N#Cc1cc(N)ccc1Oc1ccc(C(F)(F)F)cc1` yielded a melting point of 75 to 77 °C.
Take `CS(=O)(=O)c1ccc(OCCCl)cc1`: the melting point lay within 85 to 87 °C.
In the case of `Cc1nc(O)ccc1Br`, the melting point was 199 to 201 °C.
The compound `CCc1cc(C(=O)O)n[nH]1` gave a melting point of 191 to 193 °C.
The result for `N#Cc1ccc(CS(N)(=O)=O)cc1` reads 154 to 156 °C.

One may read the melting point as the temperature, or range, at which the solid turns liquid.
